For orientation: inhibition means the change of the read-out against control, counted positive when it falls. As a reminder, the IC50 is the concentration that gives 50% inhibition.

This is an account of results in ChEMBL document CHEMBL5316291 (J Med Chem, 2023).

In series [1] the target is T1, Protein mono-ADP-ribosyltransferase TIPARP (Homo sapiens) (UniProt Q7Z3E1).
T1 sequence (whole entry): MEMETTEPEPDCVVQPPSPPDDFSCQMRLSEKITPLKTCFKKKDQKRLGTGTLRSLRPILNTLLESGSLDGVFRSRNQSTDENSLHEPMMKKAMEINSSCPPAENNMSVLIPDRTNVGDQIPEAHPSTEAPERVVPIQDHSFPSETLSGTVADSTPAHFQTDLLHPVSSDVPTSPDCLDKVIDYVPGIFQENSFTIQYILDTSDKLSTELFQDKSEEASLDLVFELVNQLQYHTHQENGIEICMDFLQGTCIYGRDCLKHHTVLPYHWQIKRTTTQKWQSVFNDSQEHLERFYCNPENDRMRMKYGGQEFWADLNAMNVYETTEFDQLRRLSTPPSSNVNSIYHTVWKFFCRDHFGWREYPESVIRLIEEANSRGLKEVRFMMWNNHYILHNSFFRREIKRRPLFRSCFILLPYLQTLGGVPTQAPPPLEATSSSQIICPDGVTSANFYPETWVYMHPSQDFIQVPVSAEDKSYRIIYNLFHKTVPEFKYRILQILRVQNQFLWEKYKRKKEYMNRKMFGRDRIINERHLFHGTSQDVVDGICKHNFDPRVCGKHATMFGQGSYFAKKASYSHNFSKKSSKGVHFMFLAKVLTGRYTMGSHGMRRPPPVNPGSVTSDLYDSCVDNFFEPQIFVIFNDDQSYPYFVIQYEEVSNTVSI
As to the kind of experiment: Inhibition of human recombinant N-terminal FLAG tagged PARP7 (400 to 657 end residues) at 100 nM incubated for 1 hr by ELISA assay relative to control.

Series [2] concerns the target T2, Protein mono-ADP-ribosyltransferase PARP11 (Homo sapiens, UniProt Q9NR21).
T2 sequence (Q9NR21 whole entry): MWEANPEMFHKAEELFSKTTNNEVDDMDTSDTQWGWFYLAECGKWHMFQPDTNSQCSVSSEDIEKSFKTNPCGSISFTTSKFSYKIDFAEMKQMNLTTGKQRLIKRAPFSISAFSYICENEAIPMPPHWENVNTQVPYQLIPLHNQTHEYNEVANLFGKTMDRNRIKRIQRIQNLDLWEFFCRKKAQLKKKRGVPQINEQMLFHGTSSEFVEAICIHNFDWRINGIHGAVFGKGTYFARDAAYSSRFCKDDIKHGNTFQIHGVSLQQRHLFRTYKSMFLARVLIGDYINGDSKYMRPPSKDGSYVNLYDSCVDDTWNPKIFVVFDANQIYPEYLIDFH
As to the kind of experiment: Inhibition of human recombinant N-terminal GST-tagged / C-terminal His-tagged PARP11 (8 to 338 end residues) expressed in baculovirus infected Sf9 cells expression system incubated for 1 hr by ELISA assay. In general terms: ELISA stands for enzyme-linked immunosorbent assay.

The target in series [3] is T3, Protein mono-ADP-ribosyltransferase PARP12 (Homo sapiens, UniProt Q9H0J9).
T3 sequence (Q9H0J9 whole entry): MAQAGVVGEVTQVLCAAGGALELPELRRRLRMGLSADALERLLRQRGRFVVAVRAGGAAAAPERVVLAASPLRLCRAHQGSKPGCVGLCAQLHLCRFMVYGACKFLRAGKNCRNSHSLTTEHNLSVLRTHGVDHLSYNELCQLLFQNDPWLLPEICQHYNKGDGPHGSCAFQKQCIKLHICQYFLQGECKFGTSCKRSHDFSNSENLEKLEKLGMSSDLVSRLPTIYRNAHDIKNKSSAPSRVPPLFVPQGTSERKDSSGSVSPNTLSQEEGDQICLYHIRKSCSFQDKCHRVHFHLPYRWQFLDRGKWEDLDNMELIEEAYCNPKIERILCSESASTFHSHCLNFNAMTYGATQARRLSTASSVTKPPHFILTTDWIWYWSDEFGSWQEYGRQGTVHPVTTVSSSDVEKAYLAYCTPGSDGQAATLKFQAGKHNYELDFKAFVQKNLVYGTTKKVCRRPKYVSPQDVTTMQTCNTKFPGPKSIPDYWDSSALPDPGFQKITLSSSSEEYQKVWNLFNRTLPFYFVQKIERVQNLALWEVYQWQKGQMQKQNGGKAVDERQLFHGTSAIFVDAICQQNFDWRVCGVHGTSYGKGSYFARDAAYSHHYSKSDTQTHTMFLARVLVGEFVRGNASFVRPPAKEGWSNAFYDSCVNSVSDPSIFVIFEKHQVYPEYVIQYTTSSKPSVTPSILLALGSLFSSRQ
As to the kind of experiment: Inhibition of human recombinant N-terminal GST-tagged PARP12 (500 to 701 end residues) expressed in baculovirus infected Sf9 cells expression system incubated for 1 hr by ELISA assay.

Series [4] concerns the target Protein mono-ADP-ribosyltransferase PARP14 (Homo sapiens, UniProt Q460N5). As to the kind of experiment: Inhibition of human recombinant N-terminal 6his-tagged / GST-tagged PARP14 (1470 to 1801 end residues) expressed in baculovirus infected Sf9 cells expression system incubated for 1 hr by ELISA assay.
The subject of series [5] is CT26. Nature of the series: Antitumor activity against mouse CT26 cells implanted in BALB/c mouse assessed as decrease in Ki-67 expression at 25 to 100 mg/kg, po bid measured for 14 days by immunohistochemistry analysis. In kind it is functional, organism-based. To be noted: dose 25-100 mg/kg, time 14.0 day.
The nature of series [6]: Toxicity in BALB/c mouse implanted with mouse CT26 cells assessed as kidney damage at 100 mg/kg, po measured for 14 days by hematoxylin and eosin staining based fluorescence microscopic analysis. It counts as organism-based. The settings on record: in vivo, 336 h, time 14 day.
For series [7], the system named is CT26. As to the kind of experiment: Antitumor activity against mouse CT26 cells implanted in po dosed BALB/c mouse assessed as increase in IFN-beta levels measured after 14 days by RT-qPCR analysis. The settings on record: dose 25-100 mg/kg, time 14.0 day. In kind it is functional, organism-based. (Real-time PCR tracks product formation cycle by cycle.)
For series [8], the system named is CT26. Nature of the series: Antitumor activity against mouse CT26 cells implanted in BALB/c mouse assessed as increase in infiltration of CD4 positive CD8 positive T lymphocytes in tumors at 50 mg/kg, po measured after 14 days by flow cytometry (reference value: 6.67%). It counts as functional. The settings on record: time 14 day. A general note: A flow cytometer gives signals particle by particle.

Series [9] concerns CT26. As to the kind of experiment: Antitumor activity against mouse CT26 cells implanted in po dosed BALB/c mouse assessed as increase in PARP7 levels at 50 to 100 mg/kg measured after 14 days by RT-qPCR analysis. To be noted: dose 50-100 mg/kg, time 14.0 day. It counts as functional, organism-based.

SMILES strings stand for the structures. Active and inactive are the calls of the source. The rule behind the calls is not given here.

Chain of Protein mono-ADP-ribosyltransferase PARP14 (Q460N5 whole entry): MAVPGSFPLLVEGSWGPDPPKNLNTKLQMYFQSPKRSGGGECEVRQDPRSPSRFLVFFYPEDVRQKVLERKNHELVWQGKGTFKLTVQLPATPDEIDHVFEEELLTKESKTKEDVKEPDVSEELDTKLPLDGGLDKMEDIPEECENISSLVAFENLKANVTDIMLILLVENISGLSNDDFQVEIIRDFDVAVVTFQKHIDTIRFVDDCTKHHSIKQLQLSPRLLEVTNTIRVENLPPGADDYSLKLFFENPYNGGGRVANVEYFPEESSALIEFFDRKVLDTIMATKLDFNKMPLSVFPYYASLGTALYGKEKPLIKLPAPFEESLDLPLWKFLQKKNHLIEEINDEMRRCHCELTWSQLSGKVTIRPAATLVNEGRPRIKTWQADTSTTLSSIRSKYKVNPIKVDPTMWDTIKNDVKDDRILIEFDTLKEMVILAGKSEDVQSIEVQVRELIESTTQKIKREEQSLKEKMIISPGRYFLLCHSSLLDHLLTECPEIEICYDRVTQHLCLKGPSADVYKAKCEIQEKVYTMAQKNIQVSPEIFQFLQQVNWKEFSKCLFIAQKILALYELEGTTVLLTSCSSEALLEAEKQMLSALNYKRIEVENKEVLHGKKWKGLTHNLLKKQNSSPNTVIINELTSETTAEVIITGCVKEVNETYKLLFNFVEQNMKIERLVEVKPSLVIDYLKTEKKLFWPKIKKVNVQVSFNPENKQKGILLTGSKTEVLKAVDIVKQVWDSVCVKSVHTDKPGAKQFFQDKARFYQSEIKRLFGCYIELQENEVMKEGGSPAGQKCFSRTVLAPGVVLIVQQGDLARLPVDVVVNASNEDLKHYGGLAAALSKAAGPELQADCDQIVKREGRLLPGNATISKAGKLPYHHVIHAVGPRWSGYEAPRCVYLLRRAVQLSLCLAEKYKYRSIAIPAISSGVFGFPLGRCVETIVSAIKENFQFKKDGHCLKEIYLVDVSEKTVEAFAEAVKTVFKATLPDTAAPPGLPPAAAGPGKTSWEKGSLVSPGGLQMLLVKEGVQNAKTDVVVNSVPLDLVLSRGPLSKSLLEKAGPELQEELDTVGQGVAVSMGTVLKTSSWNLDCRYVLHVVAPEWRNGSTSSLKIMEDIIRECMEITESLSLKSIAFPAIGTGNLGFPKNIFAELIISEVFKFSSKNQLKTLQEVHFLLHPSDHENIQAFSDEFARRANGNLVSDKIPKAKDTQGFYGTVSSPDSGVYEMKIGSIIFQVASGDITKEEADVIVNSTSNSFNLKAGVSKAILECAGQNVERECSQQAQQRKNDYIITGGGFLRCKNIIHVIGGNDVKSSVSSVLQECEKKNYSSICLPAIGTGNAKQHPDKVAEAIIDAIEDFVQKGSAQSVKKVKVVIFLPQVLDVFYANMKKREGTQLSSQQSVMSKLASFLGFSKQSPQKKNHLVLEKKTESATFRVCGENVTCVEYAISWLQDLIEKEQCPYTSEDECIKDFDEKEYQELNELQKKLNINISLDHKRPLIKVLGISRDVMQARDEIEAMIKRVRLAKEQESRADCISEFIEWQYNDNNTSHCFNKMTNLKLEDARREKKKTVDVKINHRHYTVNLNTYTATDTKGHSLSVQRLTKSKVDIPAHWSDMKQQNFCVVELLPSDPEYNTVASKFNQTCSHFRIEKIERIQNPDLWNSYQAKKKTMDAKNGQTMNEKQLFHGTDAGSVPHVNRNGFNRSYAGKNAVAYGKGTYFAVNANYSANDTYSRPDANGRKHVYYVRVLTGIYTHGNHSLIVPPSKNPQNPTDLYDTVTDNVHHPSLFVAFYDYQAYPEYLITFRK

With `C[C@@H](CN1CC(C(=O)N2CCN(c3ncc(C(F)(F)F)cn3)CC2)C1)Nc1cn[nH]c(=O)c1C(F)(F)F`, the inhibition in series [1] was 70.5%. For the same molecule, the IC50 in series [2] was found to be 32.2 µM; in series [3], 0.453 µM; in [4] it was 2.17 µM. Further, the result in series [5] was Active. The Activity result in series [6] is “Non-Toxic”; in series [7] it was “Dose-Dependent Effect”; in [8] it was 26.6%. For the same molecule, the outcome in series [9] was inactive.
